Measurements as given in ChEMBL document CHEMBL4028802, “DILIrank: the largest reference drug list ranked by the risk for developing drug-induced liver injury in humans” (Drug Discov Today, 2016).
Starred links: 1 amine or outer side, 2 acyl side, 3 side chain; linkers in the order of their positions; H or OH if unused. Positions of bridges follow the written chain, without caps; N, C: chain ends. Non-standard residues stand in square brackets, D forms with d. Residues, ends and D or L forms follow the SMILES beside them. Chains are numbered I, II in the order given. *: point of attachment. Actinocin(9to1) = Cc1c2oc3c(C)ccc(C(=O)[*:1])c3nc-2c(C(=O)[*:2])c(N)c1=O; dPhe(4-NHCONH2) = NC(=O)Nc1ccc(C[C@@H](N)C(=O)O)cc1; Dihydroorotyl(S) = O=C1C[C@@H](C(=O)*)NC(=O)N1; dPhe(4-Cl) = N[C@H](Cc1ccc(Cl)cc1)C(=O)O; Phe(4-NH2) = Nc1ccc(C[C@H](N)C(=O)O)cc1; d2Nal = N[C@H](Cc1ccc2ccccc2c1)C(=O)O; Lys(iPr) = CC(C)NCCCC[C@H](N)C(=O)O; d3Pal = N[C@H](Cc1cccnc1)C(=O)O; NMeV = CN[C@H](C(=O)O)C(C)C; Sar = CNCC(=O)O

Columns and labels:
Homo sapiens [1] = organism: Homo sapiens; assay: Liver toxicity in human assessed as induction of drug-induced liver injury by measuring severity class index
Homo sapiens [2] = organism: Homo sapiens; assay: Liver toxicity in human assessed as induction of drug-induced liver injury by measuring verified drug-induced liver injury concern status
Wherever DILI severity class is given: key of the grades not given here.

| SMILES | DILI_severity_class (Homo sapiens [1]) | DILI_Concern (Homo sapiens [2]) |
| --- | --- | --- |
| Nc1ccn([C@@H]2O[C@H](CO)[C@@H](O)[C@@H]2O)c(=O)n1 [CYTARABINE] | 3 | Most-Dili-Concern |
| CN(C)/N=N/c1[nH]cnc1C(N)=O [DACARBAZINE] | 6 | Most-Dili-Concern |
| Cc1c2oc3c(C)ccc(C(=O)N[C@@H]4C(=O)N[C@H](C(C)C)C(=O)N5CCC[C@H]5C(=O)N(C)CC(=O)N(C)[C@@H](C(C)C)C(=O)O[C@@H]4C)c3nc-2c(C(=O)N[C@@H]2C(=O)N[C@H](C(C)C)C(=O)N3CCC[C@H]3C(=O)N(C)CC(=O)N(C)[C@@H](C(C)C)C(=O)O[C@@H]2C)c(N)c1=O [DACTINOMYCIN] (I: T[dV]P[Sar][NMeV] / II: T[dV]P[Sar][NMeV]; ester I:1-I:C, II:1-II:C; linker I:N-II:N via Actinocin(9to1)) | 8 | Most-Dili-Concern |
| C#C[C@]1(O)CC[C@H]2[C@@H]3CCC4=Cc5oncc5C[C@]4(C)[C@H]3CC[C@@]21C [DANAZOL] | 8 | Most-Dili-Concern |
| O=C1CN(/N=C/c2ccc(-c3ccc([N+](=O)[O-])cc3)o2)C(O)=N1 [DANTROLENE] | 8 | Most-Dili-Concern |
| Nc1ccc(S(=O)(=O)c2ccc(N)cc2)cc1 [DAPSONE] | 3 | Less-Dili-Concern |
| CCCCCCCCCC(=O)N[C@@H](Cc1c[nH]c2ccccc12)C(=O)N[C@H](CC(N)=O)C(=O)N[C@@H](CC(=O)O)C(=O)N[C@@H]1C(=O)NCC(=O)N[C@@H](CCCN)C(=O)N[C@@H](CC(=O)O)C(=O)N[C@H](C)C(=O)N[C@@H](CC(=O)O)C(=O)NCC(=O)N[C@H](CO)C(=O)N[C@@H]([C@H](C)CC(=O)O)C(=O)N[C@@H](CC(=O)c2ccccc2N)C(=O)O[C@@H]1C [DAPTOMYCIN] | 5 | Less-Dili-Concern |
| NC(=O)C(c1ccccc1)(c1ccccc1)[C@@H]1CCN(CCc2ccc3c(c2)CCO3)C1 [DARIFENACIN] | 0 | No-Dili-Concern |
| Cc1nc(Nc2ncc(C(=O)Nc3c(C)cccc3Cl)s2)cc(N2CCN(CCO)CC2)n1.O [DASATINIB] | 4 | Less-Dili-Concern |
| COc1cccc2c1C(=O)c1c(O)c3c(c(O)c1C2=O)C[C@@](O)(C(C)=O)C[C@@H]3O[C@H]1C[C@H](N)[C@H](O)[C@H](C)O1 [DAUNORUBICIN] | 0 | No-Dili-Concern |
| Nc1ncn([C@H]2C[C@H](O)[C@@H](CO)O2)c(=O)n1 [DECITABINE] | 4 | Ambiguous-Dili-Concern |
| O=C(O)c1ccc(-n2nc(-c3ccccc3O)nc2-c2ccccc2O)cc1 [DEFERASIROX] | 7 | Most-Dili-Concern |
| CC(=O)N(O)CCCCCNC(=O)CCC(=O)N(O)CCCCCNC(=O)CCC(=O)N(O)CCCCCN [DEFEROXAMINE] | 0 | Less-Dili-Concern |
| CC(=O)N[C@H](Cc1ccc2ccccc2c1)C(=O)N[C@H](Cc1ccc(Cl)cc1)C(=O)N[C@H](Cc1cccnc1)C(=O)N[C@@H](CO)C(=O)N[C@@H](Cc1ccc(NC(=O)[C@@H]2CC(=O)NC(=O)N2)cc1)C(=O)N[C@H](Cc1ccc(NC(N)=O)cc1)C(=O)N[C@@H](CC(C)C)C(=O)N[C@@H](CCCCNC(C)C)C(=O)N1CCC[C@H]1C(=O)N[C@H](C)C(N)=O [DEGARELIX] (Ac-[d2Nal][dPhe(4-Cl)][d3Pal]S[Phe(4-NH2)](Dihydroorotyl(S))[dPhe(4-NHCONH2)]L[Lys(iPr)]P[dA]-NH2) | 3 | Ambiguous-Dili-Concern |
| CC(C)Nc1cccnc1N1CCN(C(=O)c2cc3cc(NS(C)(=O)=O)ccc3[nH]2)CC1 [DELAVIRDINE] | 5 | Ambiguous-Dili-Concern |
| CN(C)[C@@H]1C(O)=C(C(N)=O)C(=O)[C@@]2(O)C(O)=C3C(=O)c4c(O)ccc(Cl)c4[C@@H](O)[C@H]3C[C@@H]12 [DEMECLOCYCLINE] | 3 | Ambiguous-Dili-Concern |
| CNCCCN1c2ccccc2CCc2ccccc21 [DESIPRAMINE] | 3 | Ambiguous-Dili-Concern |
| Clc1ccc2c(c1)CCc1cccnc1C2=C1CCNCC1 [DESLORATADINE] | 3 | Less-Dili-Concern |
| NC(=O)CC[C@@H]1NC(=O)[C@H](Cc2ccccc2)NC(=O)[C@H](Cc2ccc(O)cc2)NC(=O)CCSSC[C@@H](C(=O)N2CCC[C@H]2C(=O)N[C@H](CCCN=C(N)N)C(=O)NCC(N)=O)NC(=O)[C@H](CC(N)=O)NC1=O [DESMOPRESSIN] | 3 | Ambiguous-Dili-Concern |
| CN(C)CC(c1ccc(O)cc1)C1(O)CCCCC1 (stereo not drawn) [DESVENLAFAXINE] | 3 | Less-Dili-Concern |
| C[C@@H]1C[C@H]2[C@@H]3CCC4=CC(=O)C=C[C@]4(C)[C@@]3(F)[C@@H](O)C[C@]2(C)[C@@]1(O)C(=O)CO [DEXAMETHASONE] | 3 | Ambiguous-Dili-Concern |
| CN(C)CC[C@@H](c1ccc(Br)cc1)c1ccccn1 [DEXBROMPHENIRAMINE] | 0 | No-Dili-Concern |

| SMILES | DILI_severity_class (Homo sapiens [1]) | DILI_Concern (Homo sapiens [2]) |
| --- | --- | --- |
| CN(C)CC[C@@H](c1ccc(Cl)cc1)c1ccccn1 [DEXCHLORPHENIRAMINE] | 0 | No-Dili-Concern |
| Cc1c(OCC(F)(F)F)ccnc1C[S@@+]([O-])c1nc2ccccc2[nH]1 [DEXLANSOPRAZOLE] | 4 | Less-Dili-Concern |
| Cc1cccc([C@H](C)c2cnc[nH]2)c1C [DEXMEDETOMIDINE] | 4 | Ambiguous-Dili-Concern |
| COC(=O)[C@H](c1ccccc1)[C@H]1CCCCN1 [DEXMETHYLPHENIDATE] | 7 | Less-Dili-Concern |
| CC(C)(CO)[C@@H](O)C(=O)NCCCO [DEXPANTHENOL] | 0 | No-Dili-Concern |
| C[C@@H](CN1CC(=O)NC(=O)C1)N1CC(=O)NC(=O)C1 [DEXRAZOXANE] | 4 | Ambiguous-Dili-Concern |
| C[C@H](N)Cc1ccccc1 [DEXTROAMPHETAMINE] | 0 | No-Dili-Concern |
| COc1ccc2c(c1)[C@]13CCCC[C@@H]1[C@H](C2)N(C)CC3 [DEXTROMETHORPHAN] | 0 | No-Dili-Concern |
| OC[C@H]1OC(O)[C@H](O)[C@@H](O)[C@@H]1O (stereo partly drawn) [DEXTROSE] | 0 | No-Dili-Concern |
| CC(=O)Nc1c(I)c(NC(C)=O)c(I)c(C(=O)O)c1I [DIATRIZOIC ACID] | 0 | No-Dili-Concern |
| CN1C(=O)CN=C(c2ccccc2)c2cc(Cl)ccc21 [DIAZEPAM] | 4 | Ambiguous-Dili-Concern |
| CC1=NS(=O)(=O)c2cc(Cl)ccc2N1 [DIAZOXIDE] | 3 | Ambiguous-Dili-Concern |
| NS(=O)(=O)c1cc(Cl)c(Cl)c(S(N)(=O)=O)c1 [DICHLORPHENAMIDE] | 0 | No-Dili-Concern |
| O=C(O)Cc1ccccc1Nc1c(Cl)cccc1Cl [DICLOFENAC] | 8 | Most-Dili-Concern |
| Cc1onc(-c2c(Cl)cccc2Cl)c1C(=O)N[C@@H]1C(=O)N2[C@@H]1SC(C)(C)[C@@H]2C(=O)O [DICLOXACILLIN] | 3 | Less-Dili-Concern |
| CCN(CC)CCOC(=O)C1(C2CCCCC2)CCCCC1 [DICYCLOMINE] | 0 | No-Dili-Concern |
| O=c1[nH]cnc2c1ncn2[C@H]1CC[C@@H](CO)O1 [DIDANOSINE] | 8 | Most-Dili-Concern |
| CCN(CC)C(C)C(=O)c1ccccc1 (stereo not drawn) [DIETHYLPROPION] | 0 | No-Dili-Concern |
| O=C(O)c1cc(-c2ccc(F)cc2F)ccc1O [DIFLUNISAL] | 8 | Most-Dili-Concern |
| C[C@H]1O[C@@H](O[C@H]2[C@@H](O)C[C@H](O[C@H]3[C@@H](O)C[C@H](O[C@H]4CC[C@@]5(C)[C@H](CC[C@@H]6[C@@H]5C[C@@H](O)[C@]5(C)[C@@H](C7=CC(=O)OC7)CC[C@]65O)C4)O[C@@H]3C)O[C@@H]2C)C[C@H](O)[C@@H]1O [DIGOXIN] | 0 | No-Dili-Concern |
| CN1C[C@H](C(=O)N[C@]2(C)O[C@@]3(O)[C@@H]4CCCN4C(=O)[C@H](Cc4ccccc4)N3C2=O)C[C@@H]2c3cccc4[nH]cc(c34)C[C@H]21 [DIHYDROERGOTAMINE] | 0 | No-Dili-Concern |
| COc1ccc([C@@H]2Sc3ccccc3N(CCN(C)C)C(=O)[C@@H]2OC(C)=O)cc1 [DILTIAZEM] | 4 | Most-Dili-Concern |
